Earlier results, collected in patent publication US20090004173A1, “Diagnosis and Treatment of Drug Resistant Leukemia” (priority 2004, published 2009).
Where two headings read alike, the source gives them in different places.

How the values were obtained:
leukemia cells = conditions: for LC50 values for classification of ALL: Resistant / LC50 values for classification of ALL: Sensitive: LC50 by MTT, cut-off previously associated with treatment outcome
non-leukemic cell lines = conditions: Niitsu et al. (2000)
[1] = classification cut-off: cell is resistant if LC-50 is equal to or greater than the value

Molecule	LC50 values for classification of ALL: Resistant (leukemia cells)	LC50 values for classification of ALL: Sensitive (leukemia cells)	LC-50 values for classifying leukemia cells as drug-resistant (leukemia cells; [1])	sensitization to the cytotoxicity of daunorubicin and doxorubicin (non-leukemic cell lines)	LC-50 values for classifying leukemia cells as drug-resistant (leukemia cells)
C[C@]12C=CC(=O)C=C1CC[C@@H]1[C@@H]2[C@@H](O)C[C@@]2(C)[C@H]1CC[C@]2(O)C(=O)CO [Prednisolone, prednisolone]	≧150 μg/ml	≦0.100 μg/ml	≧150 μg/ml		
COc1cccc2c1C(=O)c1c(O)c3c(c(O)c1C2=O)C[C@@](O)(C(C)=O)C[C@@H]3O[C@H]1C[C@H](N)[C@H](O)[C@H](C)O1 [Daunorubicin, daunorubicin]	≧0.114 μg/ml	≦0.075 μg/ml	≧0.114 μg/ml		
CC[C@]1(O)C[C@H]2CN(CCc3c([nH]c4ccccc34)[C@@](C(=O)OC)(c3cc4c(cc3OC)N(C=O)[C@H]3[C@@](O)(C(=O)OC)[C@H](OC(C)=O)[C@]5(CC)C=CCN6CC[C@]43[C@@H]65)C2)C1 [Vincristine, vincristine]	≧1.758 μg/ml	≦0.391 μg/ml	≧1.758 μg/ml		
CCCC(=O)OCOC(=O)C(C)(C)C [AN-9]				sensitize non-leukemic cell lines to the cytotoxicity of daunorubicin and doxorubicin	
L-asparaginase (protein, UniProt P00805 23-348, looked up) L-asparaginase 2: LPNITILATGGTIAGGGDSATKSNYTVGKVGVENLVNAVPQLKDIANVKGEQVVNIGSQDMNDNVWLTLAKKINTDCDKTDGFVITHGTDTMEETAYFLDLTVKCDKPVVMVGAMRPSTSMSADGPFNLYNAVVTAADKASANRGVLVVMNDTVLDGRDVTKTNTTDVATFKSVNYGPLGYIHNGKIDYQRTPARKHTSDTPFDVSKLNELPKVGIVYNYANASDLPAKALVDAGYDGIVSAGVGNGNLYKSVFDTLATAAKTGTAVVRSSRVPTGATTQDAEVDDAKYGFVASGTLNPQKARVLLQLALTQTKDPQQIQQIFNQY	≧0.912 IU/ml	≦0.033 IU/ml			≧0.912 IU/ml
